The assay has as its system L1210 leukemia ip in BDF1 mice, survival T/C. Kind of assay: NCI In Vivo Anticancer Drug Screen. Data for tumor model L1210 Leukemia (intraperitoneal) in B6D2F1 (BDF1) mice. The settings on record: endpoint: mean survival time, higher = longer survival. In a few lines: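 Tumor was transplanted into mice, which were then dosed with test compound or vehicle alone. Survival was recorded for each group, and the treated figure was expressed relative to the control figure.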

The mark [1] stands for this setting: dose: 100.0 mg/kg/injection, schedule: Q04DX003 (ip), vehicle: Klucel (hydroxypropylcellulose) (HPC).
[2] abbreviates: dose: 200.0 mg/kg/injection, schedule: Q04DX003 (ip), vehicle: Klucel (hydroxypropylcellulose) (HPC).
Setting [3] is: dose: 400.0 mg/kg/injection, schedule: Q04DX003 (ip), vehicle: Klucel (hydroxypropylcellulose) (HPC).
Setting [4] is: dose: 100.0 mg/kg/injection, schedule: Q01DX001 (ip), vehicle: saline.
Where [5] appears, read: dose: 100.0 mg/kg/injection, schedule: Q01DX009 (ip), vehicle: Klucel (hydroxypropylcellulose) (HPC).
Setting [6] is: dose: 200.0 mg/kg/injection, schedule: Q01DX009 (ip), vehicle: Klucel (hydroxypropylcellulose) (HPC).
Where [7] appears, read: dose: 50.0 mg/kg/injection, schedule: Q01DX009 (ip), vehicle: saline with Tween-80.
Setting [8] is: dose: 100.0 mg/kg/injection, schedule: Q04DX002 (ip), vehicle: saline with Tween-80.
Where [9] appears, read: dose: 100.0 mg/kg/injection, schedule: Q04DX003 (ip), vehicle: saline with Tween-80.
[10] abbreviates: dose: 200.0 mg/kg/injection, schedule: Q04DX002 (ip), vehicle: saline with Tween-80.
The mark [11] stands for this setting: dose: 200.0 mg/kg/injection, schedule: Q04DX003 (ip), vehicle: saline with Tween-80.
Setting [12] is: dose: 400.0 mg/kg/injection, schedule: Q04DX002 (ip), vehicle: saline with Tween-80.
The mark [13] stands for this setting: dose: 100.0 mg/kg/injection, schedule: Q01DX009 (ip), vehicle: saline with Tween-80.
[14] abbreviates: dose: 200.0 mg/kg/injection, schedule: Q01DX009 (ip), vehicle: saline with Tween-80.
[15] abbreviates: dose: 400.0 mg/kg/injection, schedule: Q04DX003 (ip), vehicle: saline with Tween-80.

Values joined by “and” are separate entries in the source; they are usually repeats but may differ in a detail not shown here. Identical values can stand only once. Toxic doses and inconclusive results are not listed.

The values below come from PubChem BioAssay AID248 (DTP/NCI, 2004).

For the compound `NNC(=O)c1ccc(S(N)(=O)=O)cc1`, the T/C is, setting by setting: (dose: 12.5 mg/kg/injection, schedule: Q01DX009 (ip), vehicle: water) 93 % of control; (dose: 25.0 mg/kg/injection, schedule: Q01DX009 (ip), vehicle: water) 96 % of control; (dose: 50.0 mg/kg/injection, schedule: Q01DX009 (ip), vehicle: water) 343 % of control; (dose: 59.0 mg/kg/injection, schedule: Q01DX009 (ip), vehicle: other) 93 % of control and 103 % of control; (dose: 89.0 mg/kg/injection, schedule: Q01DX009 (ip), vehicle: other) 97 % of control and 92 % of control; (dose: 100.0 mg/kg/injection, schedule: Q01DX009 (ip), vehicle: water) 403 % of control. Moreover, the T/C runs as follows: (dose: 133.0 mg/kg/injection, schedule: Q01DX009 (ip), vehicle: other) 101 % of control and 87 % of control; (dose: 200.0 mg/kg/injection, schedule: Q01DX009 (ip), vehicle: other) 99 % of control and 90 % of control; (dose: 200.0 mg/kg/injection, schedule: Q01DX009 (ip), vehicle: water) 459 % of control; (dose: 300.0 mg/kg/injection, schedule: Q01DX009 (ip), vehicle: other) 94 % of control and 99 % of control.

As to `CS(=O)(=O)CCC(C#N)(CCS(C)(=O)=O)c1ccccc1`, the T/C runs as follows: under setting [1], 110 % of control; under setting [2], 100 % of control; under setting [3], 102 % of control.

Regarding `Cn1c2nc(=O)[nH]c(=O)c-2cc2ccccc21`, the T/C by setting is: under setting [4], 100 % of control; (dose: 200.0 mg/kg/injection, schedule: Q01DX001 (ip), vehicle: saline) 94 % of control; (dose: 400.0 mg/kg/injection, schedule: Q01DX001 (ip), vehicle: saline) 97 % of control.

Turning to `CC(=O)/C(=C/c1ccccc1)c1ccccc1`, the T/C (dose: 75.0 mg/kg/injection, schedule: Q01DX009 (ip), vehicle: Klucel (hydroxypropylcellulose) (HPC)) is 95 % of control; the T/C (dose: 75.0 mg/kg/injection, schedule: Q04DX003 (ip), vehicle: Klucel (hydroxypropylcellulose) (HPC)) is 104 % of control; the T/C (dose: 150.0 mg/kg/injection, schedule: Q01DX009 (ip), vehicle: Klucel (hydroxypropylcellulose) (HPC)) was 106 % of control; the T/C (dose: 150.0 mg/kg/injection, schedule: Q04DX003 (ip), vehicle: Klucel (hydroxypropylcellulose) (HPC)) is 100 % of control; the T/C (dose: 300.0 mg/kg/injection, schedule: Q01DX009 (ip), vehicle: Klucel (hydroxypropylcellulose) (HPC)) is 102 % of control; the T/C (dose: 300.0 mg/kg/injection, schedule: Q04DX003 (ip), vehicle: Klucel (hydroxypropylcellulose) (HPC)) is 104 % of control.

Take `CC(=O)OC1=C(Cl)C(=O)c2ccccc2C1=O`: the T/C (dose: 75.0 mg/kg/injection, schedule: Q01DX001 (ip), vehicle: other) is 89 % of control and the T/C (dose: 150.0 mg/kg/injection, schedule: Q01DX001 (ip), vehicle: other) was 94 % of control.

Regarding `NC(=O)NCC(=O)O`, the T/C (dose: 50.0 mg/kg/injection, schedule: Q01DX001 (ip), vehicle: Klucel (hydroxypropylcellulose) (HPC)) was 96 % of control; the T/C (dose: 50.0 mg/kg/injection, schedule: Q01DX009 (ip), vehicle: Klucel (hydroxypropylcellulose) (HPC)) was 91 % of control; the T/C (dose: 100.0 mg/kg/injection, schedule: Q01DX001 (ip), vehicle: Klucel (hydroxypropylcellulose) (HPC)) is 100 % of control; the T/C under setting [5] was 100 % of control; the T/C (dose: 200.0 mg/kg/injection, schedule: Q01DX001 (ip), vehicle: Klucel (hydroxypropylcellulose) (HPC)) was 100 % of control; the T/C under setting [6] was 96 % of control. The T/C (dose: 400.0 mg/kg/injection, schedule: Q01DX001 (ip), vehicle: Klucel (hydroxypropylcellulose) (HPC)) was 94 % of control.

In the case of `CC(=O)c1ccc(OC(=O)Nc2ccc(Cl)cc2)cc1`, the T/C by setting is: (dose: 25.0 mg/kg/injection, schedule: Q01DX009 (ip), vehicle: saline with Tween-80) 106 % of control and 108 % of control; under setting [7], 106 % of control and 112 % of control; under setting [8], 100 % of control and 103 % of control; under setting [9], 103 % of control; under setting [10], 95 % of control and 92 % of control; under setting [11], 108 % of control. Besides, under setting [12], the T/C is 97 % of control and 100 % of control.

Turning to `CNC(=O)c1cc(/C=C/c2c[nH]c3ccccc23)c[n+](C)c1`, the T/C (dose: 100.0 mg/kg/injection, schedule: Q01DX001 (ip), vehicle: other) was 102 % of control; the T/C (dose: 200.0 mg/kg/injection, schedule: Q01DX001 (ip), vehicle: other) was 100 % of control; the T/C (dose: 400.0 mg/kg/injection, schedule: Q01DX001 (ip), vehicle: other) was 94 % of control.

Consider `C[n+]1ccn(CCCl)c1`, for which the T/C (dose: 25.0 mg/kg/injection, schedule: Q01DX Z (ip), vehicle: saline) is 96 % of control; the T/C (dose: 50.0 mg/kg/injection, schedule: Q01DX Z (ip), vehicle: saline) was 93 % of control; the T/C (dose: 100.0 mg/kg/injection, schedule: Q01DX Z (ip), vehicle: saline) was 96 % of control.

Take `O=C(CCl)N=c1cc(-c2ccc(Cl)cc2)ss1`: the T/C runs as follows: (dose: 50.0 mg/kg/injection, schedule: Q04DX002 (ip), vehicle: saline) 98 % of control; (dose: 100.0 mg/kg/injection, schedule: Q04DX002 (ip), vehicle: saline) 98 % of control.

As for `Cc1cccc(Cl)c1NC(=O)NCCCl`, the T/C reads like this: under setting [1], 94 % of control; under setting [2], 92 % of control; under setting [3], 94 % of control.

`CC1CCCCN1C(=O)Nc1ccccc1C(F)(F)F` (stereo unspecified): the T/C is 96 % of control and 97 % of control (dose: 100.0 mg/kg/injection, schedule: Q01DX001 (ip), vehicle: saline with Tween-80); 100 % of control and 119 % of control under setting [13]; 96 % of control and 86 % of control under setting [8]; 99 % of control and 91 % of control under setting [9]; 97 % of control and 100 % of control (dose: 200.0 mg/kg/injection, schedule: Q01DX001 (ip), vehicle: saline with Tween-80); 106 % of control and 107 % of control under setting [14]. In addition, the T/C runs as follows: under setting [10], 96 % of control and 99 % of control; under setting [11], 95 % of control and 101 % of control; (dose: 400.0 mg/kg/injection, schedule: Q01DX001 (ip), vehicle: saline with Tween-80) 100 % of control and 90 % of control; (dose: 400.0 mg/kg/injection, schedule: Q01DX009 (ip), vehicle: saline with Tween-80) 93 % of control and 116 % of control; under setting [12], 95 % of control and 100 % of control; under setting [15], 91 % of control.

With `Nc1ccnc(Cl)c1N`, the T/C under setting [7] is 111 % of control; the T/C (dose: 50.0 mg/kg/injection, schedule: Q04DX003 (ip), vehicle: saline with Tween-80) is 97 % of control; the T/C under setting [13] is 111 % of control; the T/C under setting [9] is 101 % of control; the T/C under setting [14] is 109 % of control; the T/C under setting [11] is 95 % of control.

As to `COc1ccc(C(=O)c2ccc3ccccc3c2)cc1`, the T/C was 92 % of control (dose: 100.0 mg/kg/injection, schedule: Q01DX001 (ip), vehicle: carboxymethylcellulose (CMC)); 92 % of control (dose: 200.0 mg/kg/injection, schedule: Q01DX001 (ip), vehicle: carboxymethylcellulose (CMC)); 94 % of control (dose: 400.0 mg/kg/injection, schedule: Q01DX001 (ip), vehicle: carboxymethylcellulose (CMC)).

For the compound `C(=NCCN=Cc1c[nH]c2ccccc12)c1c[nH]c2ccccc12`, the T/C under setting [13] was 100 % of control, the T/C under setting [9] was 89 % of control, the T/C under setting [14] was 102 % of control and the T/C under setting [11] is 96 % of control.

In the case of `N#CC(NC(=O)NCCO)c1ccccc1` (stereo unspecified), the T/C under setting [9] was 107 % of control, the T/C under setting [11] is 96 % of control and the T/C under setting [15] is 101 % of control.

As to `CC1(C)CC(=O)CC(C)(C)N1O`, the T/C by setting is: under setting [5], 94 % of control; under setting [1], 101 % of control; under setting [6], 98 % of control; under setting [2], 94 % of control; (dose: 400.0 mg/kg/injection, schedule: Q01DX009 (ip), vehicle: Klucel (hydroxypropylcellulose) (HPC)) 100 % of control; under setting [3], 94 % of control.

`CN(C)N=Nc1ccc(C(=N)N)cc1`: the T/C (dose: 100.0 mg/kg/injection, schedule: Q01DX001 (ip), vehicle: acid diluted with saline) was 105 % of control.

Consider `Cc1cc(C)c(O)c(CN(C)C)c1.[Cu+2]`, for which the T/C by setting is: (dose: 50.0 mg/kg/injection, schedule: Q01DX001 (ip), vehicle: saline) 98 % of control; under setting [4], 98 % of control.
